Assays:
[1] = biological target: T1, r5-HT2A (Rattus norvegicus, UniProt P14842); experiment: r5-HT2A functional assay: FLIPR, intracellular calcium mobilization in A7r5 cells; type: cell-based; details: for EC50: FLIPR, rat A7r5 vascular smooth muscle cells, read-out: r5-HT 2A EC50; for Emax: percentage of maximum 5-HT-induced response, A7r5 cells, read-out: r5-HT 2A (Emax)
T1 construct: endogenous in cells; host or cells: A7r5 rat vascular smooth muscle cells
Description: r5-HT2A Functional Assay: FLIPR
Rat Vascular Smooth Muscle Cells
(§1) The receptor-mediated mobilization of intracellular calcium ([Ca^2+]i) was studied using the Fluorescence Imaging Plate Reader (FLIPR) instrument. Rat vascular smooth muscle cells, A7r5, were grown in a normal media of DMEM/10% FBS and 10 μg/ml gentamycin. Confluent cell monolayers were trypsinized, pelleted, and re-suspended in normal media. Cells were seeded in a 50 μL volume at a density of 20,000 cells per well in a black wall, 96-well tissue culture plate and grown for 2 days. On the day of the experiment, one vial of FLIPR Calcium Assay Kit dye was re-suspended in 50 ml of a FLIPR buffer consisting of Hank's Balanced Salt Solution (HBSS), 20 mM HEPES, and 2.5 mM probenecid, pH 7.4. Cells were loaded with the calcium-sensitive dye by addition of an equal volume (50 μl) to each well of the 96-well plate and incubated with dye for 1 h at 23° C. Typically, test compounds were stored at […] in 50% DMSO/50% Ethanol solvent. Compounds were diluted 1:50 in 20% DMSO/20% Ethanol. For dose-response experiments, compounds were diluted 1:50 in FLIPR buffer and serially diluted 1:10 to give a 5- or 8-point dose-response curve.
(§2) At the beginning of an experimental run, a signal test was performed to check the basal fluorescence signal from the dye-loaded cells and the uniformity of the signal across the plate. The basal fluorescence was adjusted between 8000-12000 counts by modifying the exposure time, the camera F-stop, or the laser power. The instrument settings for a typical assay were as follows: laser power 0.3-0.6 W, camera F-stop F/2, and exposure time 0.4 sec. An aliquot (25 μl) of the test compound was added to the existing 100 μl dye-loaded cells at a dispensing speed of 50 μl/sec. Fluorescence data were collected in real-time at 1.0 sec intervals for the first 60 sec and at 6.0 sec intervals for an additional 120 sec. Responses were measured as peak fluorescence intensity minus basal and where appropriate were expressed as a percentage of a maximum 5-HT-induced response.

[2] = biological target: T2, recombinant rat 5-HT2C receptor (Rattus norvegicus, UniProt P08909); experiment: r5-HT2C functional assay: FLIPR, SR3T3 cells; type: cell-based; details: for EC50: FLIPR, SR3T3 cells expressing recombinant rat 5-HT2C, read-out: r5-HT 2C EC50; for Emax: SR-3T3, percentage of maximum 5-HT-induced response, SR3T3 cells, read-out: r5-HT 2C (Emax)
T2 construct: expressed in transfected cells; host or cells: SR3T3 cells
T2 sequence (P08909 33-460): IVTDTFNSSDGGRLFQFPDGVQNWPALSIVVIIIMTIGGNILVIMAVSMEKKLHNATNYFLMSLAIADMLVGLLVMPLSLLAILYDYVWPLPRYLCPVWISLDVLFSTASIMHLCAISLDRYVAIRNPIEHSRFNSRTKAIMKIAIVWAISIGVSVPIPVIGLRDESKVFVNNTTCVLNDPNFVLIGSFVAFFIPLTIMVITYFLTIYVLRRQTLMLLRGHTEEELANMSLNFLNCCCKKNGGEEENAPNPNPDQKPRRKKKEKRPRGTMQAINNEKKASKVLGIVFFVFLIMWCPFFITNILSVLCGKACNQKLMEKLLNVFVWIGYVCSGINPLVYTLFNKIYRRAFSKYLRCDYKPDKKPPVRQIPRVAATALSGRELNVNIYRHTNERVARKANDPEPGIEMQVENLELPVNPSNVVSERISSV
Description: as §1, §2
r5-HT2C Functional Assay: FLIPR
This assay were performed as for the r5-HT2A receptor above, except that SR3T3 cells expressing the recombinant rat 5-HT2C receptor were utilized.

[3] = biological target: T3, human serotonin receptor clone 5-HT2A (Homo sapiens, UniProt P28223); experiment: h5-HT2 functional assay, CHO-K1 aequorin luminescence (5-HT2A); type: cell-based; details: for Emax: CHO-K1, relative to the response of α-methyl-5-HT, read-out: h5-HT 2A (Emax); for EC50: CHO-K1 cells, aequorin, Gα16, read-out: h5-HT 2A EC50
T3 construct: expressed in transfected cells; host or cells: CHO-K1 cells stably expressing aequorin and Galpha16
Description: (§3) Functional response at the 5-HT2 receptor subtypes was determined using CHO-K1 cells stably expressing mitochondrially-targeted bioluminescent aequorin, Gα16, and one of either human serotonin receptor clone 5-HT2A, 5-HT2B , or 5-HT2C. Prior to testing, cells were loaded in suspension with coelenterazine for 4-16 hours and directly injected onto different concentrations of the test compound. Light emitted from the cells was measured 20-30 seconds following receptor activation. A luminometer (Hamamatsu, FDSS-6000) was used to record luminescence in response to the test compound. The mean response signal at each of 8-11 different concentrations was integrated to provide an estimation of receptor activation, expressed as the EC50 value. The efficacy of the response (Emax) at the 5-HT2A and 5-HT2B receptors is expressed relative to the response of α-methyl-5-HT under the same assay conditions while the efficacy at 5-HT2C is expressed relative to the response of 5-HT.

[4] = biological target: T4, human serotonin receptor clone 5-HT2B (Homo sapiens, UniProt P41595); experiment: h5-HT2 functional assay, CHO-K1 aequorin luminescence (5-HT2B); type: cell-based; details: for Emax: CHO-K1, relative to the response of α-methyl-5-HT, read-out: h5-HT 2B (Emax); for EC50: CHO-K1 cells, aequorin, Gα16, read-out: h5-HT 2B EC50
T4 construct: expressed in transfected cells; host or cells: CHO-K1 cells stably expressing aequorin and Galpha16
Description: as §3

[5] = biological target: T5, human serotonin receptor clone 5-HT2C (Homo sapiens, UniProt P28335); experiment: h5-HT2 functional assay, CHO-K1 aequorin luminescence (5-HT2C); type: cell-based; details: for Emax: CHO-K1, relative to the response of 5-HT, read-out: h5-HT 2C (Emax); for EC50: CHO-K1 cells, aequorin, Gα16, read-out: h5-HT 2C EC50
T5 construct: expressed in transfected cells; host or cells: CHO-K1 cells stably expressing aequorin and Galpha16
T5 sequence (P28335 33-458): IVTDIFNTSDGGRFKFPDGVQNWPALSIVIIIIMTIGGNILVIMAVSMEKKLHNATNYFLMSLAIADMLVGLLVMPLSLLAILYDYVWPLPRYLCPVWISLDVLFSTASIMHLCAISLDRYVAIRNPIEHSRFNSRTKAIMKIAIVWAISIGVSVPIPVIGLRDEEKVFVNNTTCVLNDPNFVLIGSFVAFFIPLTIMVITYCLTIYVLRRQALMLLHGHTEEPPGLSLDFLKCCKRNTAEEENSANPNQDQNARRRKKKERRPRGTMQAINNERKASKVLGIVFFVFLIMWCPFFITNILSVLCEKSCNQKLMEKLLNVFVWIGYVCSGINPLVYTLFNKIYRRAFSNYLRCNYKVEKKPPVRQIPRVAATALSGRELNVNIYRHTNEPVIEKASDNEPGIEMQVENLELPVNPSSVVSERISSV
Description: as §3

[6] = tested on: Lasered (Hypertensive) Eyes of Conscious Cynomolgus Monkeys; experiment: Acute IOP response in lasered (hypertensive) eyes of conscious cynomolgus monkeys; type: in vivo; details: for IOP change (mmHg): value in parentheses
Description: Acute IOP Response in Lasered (Hypertensive) Eyes of Conscious Cynomolgus Monkeys
Intraocular pressure (IOP) can be determined with an Alcon Pneumatonometer after light corneal anesthesia with 0.1% proparacaine. Eyes are washed with saline after each measurement. After a baseline IOP measurement, test compound is instilled in one 30 μL aliquot to the right eyes only of nine cynomolgus monkeys. Vehicle is instilled in the right eyes of six is additional animals. Subsequent IOP measurements are taken at 1, 3, and 6 hours.
The above method was used to determine the IOP lowering efficacy of Compound 1. All eyes were pretreated with 1 drop of 0.5% proparacaine to address discomfort.

[7] = dose 100 μg topical, 1 hr, baseline IOP 38.3 mmHg
[8] = dose 100 μg topical, 3 hr, baseline IOP 38.3 mmHg
[9] = dose 100 μg topical, 6 hr, baseline IOP 38.3 mmHg
[10] = dose 150 μg topical, 1 hr, baseline IOP 40.4 mmHg
[11] = dose 150 μg topical, 3 hr, baseline IOP 40.4 mmHg
[12] = dose 150 μg topical, 6 hr, baseline IOP 40.4 mmHg

T1 sequence (P14842 whole entry): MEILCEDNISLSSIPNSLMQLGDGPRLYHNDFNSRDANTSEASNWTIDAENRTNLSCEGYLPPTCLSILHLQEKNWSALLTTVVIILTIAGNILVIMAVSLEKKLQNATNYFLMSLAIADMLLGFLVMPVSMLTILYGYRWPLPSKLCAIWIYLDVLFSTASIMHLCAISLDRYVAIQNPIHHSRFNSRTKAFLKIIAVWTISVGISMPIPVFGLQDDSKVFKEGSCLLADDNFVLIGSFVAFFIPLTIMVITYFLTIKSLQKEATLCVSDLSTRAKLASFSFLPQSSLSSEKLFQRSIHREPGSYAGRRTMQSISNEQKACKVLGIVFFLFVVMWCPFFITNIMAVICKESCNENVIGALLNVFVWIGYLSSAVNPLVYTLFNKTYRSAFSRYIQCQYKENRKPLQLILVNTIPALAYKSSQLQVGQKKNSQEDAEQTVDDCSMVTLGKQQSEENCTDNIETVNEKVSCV
T3 sequence (P28223 whole entry): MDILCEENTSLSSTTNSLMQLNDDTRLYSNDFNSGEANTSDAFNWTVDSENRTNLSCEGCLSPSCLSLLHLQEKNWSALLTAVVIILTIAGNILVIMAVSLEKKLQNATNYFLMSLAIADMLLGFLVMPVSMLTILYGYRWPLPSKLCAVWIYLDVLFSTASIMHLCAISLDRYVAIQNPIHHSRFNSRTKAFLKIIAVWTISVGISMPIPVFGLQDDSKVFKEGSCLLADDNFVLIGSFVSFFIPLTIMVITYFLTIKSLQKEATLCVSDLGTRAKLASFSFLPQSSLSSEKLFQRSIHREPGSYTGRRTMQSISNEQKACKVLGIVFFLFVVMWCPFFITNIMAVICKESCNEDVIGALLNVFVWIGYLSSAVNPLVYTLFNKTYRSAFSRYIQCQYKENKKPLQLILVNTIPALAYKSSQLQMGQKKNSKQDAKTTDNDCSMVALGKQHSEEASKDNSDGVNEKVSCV
T4 sequence (P41595 whole entry): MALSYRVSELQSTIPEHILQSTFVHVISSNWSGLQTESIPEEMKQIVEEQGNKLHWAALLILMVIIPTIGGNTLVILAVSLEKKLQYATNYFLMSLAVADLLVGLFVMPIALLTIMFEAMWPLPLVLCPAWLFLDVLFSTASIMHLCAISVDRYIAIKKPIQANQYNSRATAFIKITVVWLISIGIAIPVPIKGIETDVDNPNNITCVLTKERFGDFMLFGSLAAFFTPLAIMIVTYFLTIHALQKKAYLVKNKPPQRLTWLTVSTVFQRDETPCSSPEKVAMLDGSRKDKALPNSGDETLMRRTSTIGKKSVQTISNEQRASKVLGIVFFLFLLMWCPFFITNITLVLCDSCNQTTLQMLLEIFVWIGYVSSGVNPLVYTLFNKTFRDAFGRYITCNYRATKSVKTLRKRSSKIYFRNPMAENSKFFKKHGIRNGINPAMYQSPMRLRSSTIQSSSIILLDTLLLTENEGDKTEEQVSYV

SMILES | EC50 [1] [nM] | Emax [1] [%] | EC50 [2] [nM] | Emax [2] [%] | Emax [3] [%] | EC50 [3] [nM] | Emax [4] [%] | EC50 [4] [nM] | Emax [5] [%] | EC50 [5] [nM] | also measured
COc1cccc(Cc2ccc3c(c2)CCNCC3)c1 [Example 1, 7-(3-Methoxy-benzyl)-2,3,4,5-tetrahydro-1H-benzo[d]azepine] | 386 | 39 | 82 | 100 | 102 | 1.5 | 87 | 390 | 105 | 1.1 | % IOP change [6, 7]: −16.5%; IOP change (mmHg) [6, 7]: (6.6) mmHg; % IOP change [6, 8]: −33.1%; IOP change (mmHg) [6, 8]: (13.1) mmHg; % IOP change [6, 9]: −42.5%; IOP change (mmHg) [6, 9]: (16.8) mmHg; % IOP change [6, 10]: −15.6%; IOP change (mmHg) [6, 10]: (6.1) mmHg; % IOP change [6, 11]: −29.5%; IOP change (mmHg) [6, 11]: (12.3) mmHg; % IOP change [6, 12]: −37.8%; IOP change (mmHg) [6, 12]: (15.6) mmHg
Oc1cccc(Cc2ccc3c(c2)CCNCC3)c1 [Example 2, 3-(2,3,4,5-Tetrahydro-1H-benzo[d]azepin-7-ylmethyl)-phenol] | > 1000 |  | 120 | 100 | 98 | 31 | 35 | 1240 | 109 | 8.8 | 
COc1cc(Cc2ccc3c(c2)CCNCC3)cc(OC)c1 [Example 3, 7-(3,5-Dimethoxy-benzyl)-2,3,4,5-tetrahydro-1H-benzo[d]azepine] | > 10000 |  | 629 | 70 | 104 | 16.9 | 6 | > 10000 | 105 | 20 | 
COc1cccc(OCc2ccc3c(c2)CCNCC3)c1 [Example 6, 7-[(3-methoxyphenoxy)methyl]-2,3,4,5-tetrahydro-1H-3-benzazepine] | 69 | 35 | 91 | 89 | 105 | 0.4 | 61 | 417 | 107 | 3.9 | 
Oc1cccc(OCc2ccc3c(c2)CCNCC3)c1 [Example 7, 3-(2,3,4,5-tetrahydro-1H-3-benzazepin-7-ylmethoxy)phenol] | 440 | 40 | 65 | 92 |  |  |  |  |  |  | 
COc1cccc(COc2cc3c(cc2C)CCNCC3)c1 [Example 8, 7-[(3-methoxybenzyl)oxy]-8-methyl-2,3,4,5-tetrahydro-1H-3-benzazepine] | 1920 | 48 | 250 | 102 | 102 | 2.4 | 63 | 230 | 101 | 4.5 | 

Reference: US20070293475A1, “ARYL AND HETEROARYL TETRAHYDROBENZAZEPINE DERIVATIVES AND THEIR USE FOR TREATING GLAUCOMA” (ALCON MAN[…]., priority 2006, published 2007)
